# Assays:
# snapbean plants [1] = assay: Defoliation of snapbean plants, foliar spray (Example VI, Table C); type: in vivo, Phaseolus vulgaris var. Cranberry; conditions: Phaseolus vulgaris, foliar, 96 h, read-out: Percent Defoliation
# Procedure: (§1) Solutions of the test compounds and compositions identified in Table C below were prepared by dissolving the compounds in acetone/water (50:50 volume/volume) containing 0.1 percent volume/volume of Triton X-100 surfactant commercially available from Rhom and Haas Company, Philadelphia, Pennsylvania. As detailed below, these solutions of the test compounds and compositions were applied to snapbean plants at a concentration of 0.25 pounds of each active ingredient per acre (0.28 kg/ha) or 0.50 pounds of each active ingredient per acre (0.56 kg/ha). The compositions were applied to the snapbean plants as a mixture. Ethephon is commercially available from Union Carbide Agricultural Products Company, Inc., Research Triangle Park, North Carolina.
# (§2) Into 13.5 centimeter diameter plastic pots containing a potting soil mix, i.e., one-third sandy loam soil, one-third peat moss and one-third perlite by volume, were sown three snapbean seeds (Phaseolus vulgaris var. Cranberry). Five to seven days after planting, the plants were thinned to one plant per pot. Ten to fourteen days after planting at the time of full expansion of the primary leaves, each concentration of the test compounds and compositions identified in […] (each pot sprayed with a volume equivalent to 180 gallons per acre) - i.e. 1683 l/ha was applied to three snapbean plants as a foliar spray by use of an aspirated spray apparatus set at 10 psig air pressure (517 mmHg). As a control, a water-acetone solution containing no test compound or composition was also sprayed on three snapbean plants. When dry, all or the plants were placed in a greenhouse at a temperature of 80°F ± 5°F (27°C ± 3°C) and humidity of 50 percent ± 5 percent. At 96 hours after treatment, percent defoliation of the snapbean plants was determined by visual observation. The values obtained For the control and each test compound and composition were averaged to obtain the results in Table C.
# snapbean plants [2] = assay: Defoliation of snapbean plants at various rates, 72 hours (Example VII, Table D); type: in vivo, Phaseolus vulgaris var. Cranberry; conditions: 72 hours after treatment
# Procedure: as §1, §2
# In a manner similar to the procedure described in Example VI, the defoliation effect on snapbean plants was determined for representative synergistic compositions at various rates of application except that percent defoliation of the snapbean plants was determined at 72 hours after treatment. TABLE D
# snapbean plants [3] = assay: Combination/sequential applications, defoliation of snapbean plants (Example VIII, Table E); type: in vivo, Phaseolus vulgaris var. Cranberry; conditions: Rate 0.5 Pounds per Acre, applied alone
# Procedure: as §1
# (§3) Into 13.5 centimeter diameter plastic pots containing a potting soil mix, i.e., one-third sandy loam soil, one-third peat moss and one-third perlite by volume, were sown three snapbean seeds (Phaseolus vulgaris var. Cranberry). Five to seven days after planting, the plants were thinned to one plant per pot. […] At 96 hours after treatment, percent defoliation of the snapbean plants was determined by visual observation. […]
# In a manner similar to the procedure described in Example VI , the defoliation effect on snapbean plants was determined for representative synergistic compositions using both combination (tank mix) and sequential application methods. […]
# cotton plants = assay: Defoliation and boll opening of cotton under field conditions (Example IX, Table F); type: in vivo; conditions: Rate 2.0 Pounds per Acre
# Procedure: (§4) Solutions of the test compounds and compositions identified in Table F were prepared by dissolving the compounds in acetone/water (50:50 volume/volume) containing 0.1 percent volume/volume of Surfel® spray adjuvant commercially available from Union Carbide Corporation, Danbury, Connecticut. As detailed below, these solutions of test compounds and compositions were applied to cotton plants at a concentration of 0.5 pounds of each active ingredient per acre (0,6 kg/ha) or 2.0 pounds of active ingredient per acre (2,2 kg/ha). The compositions were applied to cotton as mixtures.
# (§5) The above solutions were applied to cotton plants growing under field conditions at a spray volume equivalent to 100 gallons per acre 935 l/ha) by use of a carbon dioxide backpack sprayer set at about 30 psig air pressure (2 bar). The application timing coincided with a cotton maturity phase equivalent to about 40 percent open bolls. As a control, a water-acetone solution containing no test compound or composition was also sprayed on the cotton plants. At four days after treatment, percent defoliation of the cotton plants was determined by visual observation. At 14 days after treatment, percent boll opening was determined by visual observation of the number of open bolls/total number of bolls. The percent defoliation and percent boll opening values obtained for the control and each of the test compounds and compositions are reported in Table F as the average of three replications. TABLE F
# rank growth cotton = assay: Defoliation of cotton (rank growth) (Example X, Table G); type: in vivo; conditions: Rate 2.0 Pounds per Acre
# Procedure: as §4, §5
# In a manner similar to the procedure described in Example IX , the defoliation effect on rank growth cotton was determined for representative synergistic compositions at various rates of application. […] TABLE G
# cotton [4] = assay: Sequential applications, defoliation of cotton (Example XI, Table H); type: in vivo; conditions: Rate 0.25 Pounds per Acre, alone
# Procedure: In a manner similar to the procedure described in Example VI , the defoliation effect on snapbean plants was determined for representative synergistic compositions using both combination (tank mix) and sequential application methods. In the sequential application method, the second compound was applied 78 hours after the first compound. TABLE E
# In a manner similar to the procedure described in Example VIII , the defoliation effect on cotton was determined for representative synergistic compositions using sequential application. Ethephon applications were made 7 days after application of the particular malonic acid derivative compound. TABLE H
# cotton [5] = assay: Defoliation of cotton at various rates (Example XII, Table I); type: in vivo; conditions: Rate 0.5 Pounds per Acre, alone
# Procedure: as §4, §5
# In a manner similar to the procedure described in Example IX , the defoliation effect on cotton was determined for representative synergistic compositions at various rates of application.
# cotton [6] = assay: Defoliation of cotton at various rates (Example XIII, Table J); type: in vivo; conditions: Rate 0.5 Pounds per Acre, alone
# Procedure: as §4, §5
# In a manner similar to the procedure described in Example IX , the defoliation effect on cotton was determined for representative synergistic compositions at various rates of application. TABLE J
# cotton plant = assay: Regrowth of cotton following defoliation, DEF treated plant as standard (Example XIV, Table K); type: in vivo; conditions: for Percent Stimulation: regrowth relative to DEF standard (43 percent), 30 days after treatment
# Procedure: as §4, §5
# In a manner similar to the procedure described in Example IX , the effect of cotton regrowth after defoliation was determined for representative synergistic compositions at various rates of application. The percent regrowth inhibition and stimulation in Table R below were determined by visual observation based on the percent of a cotton plant having regrowth using a DEF treated cotton plant as the standard. DEF is commercially available from Mobay Chemical Corporation, Kansas City, Missouri. The average regrowth of a cotton plant treated with DEF was 43 percent. As used in Table R, percent regrowth inhibition resulted from a cotton plant having a regrowth percentage less than 43 percent (DEF standard), and percent regrowth stimulation resulted from a cotton plant having a regrowth percentage greater than 43 percent. The percent regrowth inhibition and stimulation were determined 30 days after treatment.
# mature tobacco plants = assay: Leaf ripening (chlorosis) of tobacco (Example XV, Table L); type: in vivo; conditions: Rate 1.0 Pounds per Acre, alone; upper three leaves; 7 days after treatment; control 10
# Procedure: as §1, with “Ethephon is commercially available from Union Carbide Agricultural Products Company, Inc., Research Triangle Park, North Carolina.” left out
# as §3, with “Cranberry).” for “Cranberry). Five to seven days after planting, the plants were thinned to one plant per pot.”
# In a manner similar to the procedure described in Example VI except that mature tobacco plants were used in place of snapbean plants, the leaf ripening effect of tobacco was determined for representative synergistic compositions at various rates of application. […] Percent tobacco leaf ripening (chlorosis) was determined by visual observation of the upper three leaves of the tobacco plant at 7 days after treatment. […]
# snapbean plants [7] = assay: Defoliation of snapbean plants with various ethylene releasing agents (Example XVI, Table M); type: in vivo, Phaseolus vulgaris var. Cranberry
# Procedure: as §1, §2
# In a manner similar to the procedure described in Example VI , the defoliation effect on snapbean plants was determined for representative synergistic compositions at various rates of application using various ethylene releasing agents identified in Table M below. The ethylene releasing agents used in […] are known materials which can be prepared by conventional methods.
# [8] = Gossypium hirsutum, 720 h, read-out: Percent Inhibition
smiles,measurement,setting,value
"O=P(O)(O)CCCl [Ethephon, 2-chloroethylphosphonic acid, reference compound]",pest or weed control at 280.212 g/ha,snapbean plants [1],0%
same,pest or weed control at 560.425 g/ha,snapbean plants [1],21%
same,Percent Defoliation,snapbean plants [2]; Rate 0.25 Pounds per Acre,0%
same,Percent Defoliation,snapbean plants [2]; Rate 0.50 Pounds per Acre,0%
same,Percent Defoliation,snapbean plants [3],0%
same,Percent Boil Opening,"cotton plants; 14 days after treatment, control 41",64%
same,Percent Defoliation,"cotton plants; field conditions, four days after treatment",5%
same,Percent Defoliation,rank growth cotton,12%
same,Percent Defoliation,cotton [4],3%
same,Percent Defoliation,cotton [5],13%
same,Percent Defoliation,cotton [6],5%
same,inhibition at 560.425 g/ha,cotton plant; [8],0%
same,inhibition at 1120.85 g/ha,cotton plant; [8],0%
same,inhibition at 2241.7 g/ha,cotton plant; [8],0%
same,Percent Stimulation,cotton plant; Rate 0.5 Pounds per Acre,16%
same,Percent Stimulation,cotton plant; Rate 1.0 Pounds per Acre,70%
same,Percent Stimulation,cotton plant; Rate 2.0 Pounds per Acre,62%
same,Percent Ripening (Chlorosis),mature tobacco plants,10%
same,Percent Defoliation,snapbean plants [7]; Rate 0.125 Pounds per Acre,0%
same,Percent Defoliation,snapbean plants [7]; Rate 0.25 Pounds per Acre,0%
same,Percent Defoliation,snapbean plants [7]; Rate 0.50 Pounds per Acre,0%

# Reference: patent publication EP0262209B1, “SYNERGISTIC PLANT GROWTH REGULATOR COMPOSITIONS” (RHONE POULENC NEDERLAND B.V., priority 1986, dated 1987)
